Results published in US8507509B2, “Saturated and insaturated bi- or tricyclic aryloxyacetamine derivatives and their use as fungicides” (Syngenta Crop Protection LLC, priority 2007, dated 2013).

Key:
Plasmopara viticola = Plasmopara viticola (downy mildew of grapevine), grapevine leaf disk assay, preventive; type: in vivo; settings: foliar, 168 h, 200 ppm, grapevine leaf disks, assessed seven days after inoculation, read-out: control of fungal infection, Plasmopara viticola
Septoria tritici = Septoria tritici (leaf blotch), liquid culture growth inhibition in nutrient broth; type: cell-based; settings: Zymoseptoria tritici; 200 ppm; PDB broth, 24 C; inhibition of growth determined photometrically after 72 hrs; read-out: control of fungal infection, Septoria tritici
Botrytis cinerea = Botrytis cinerea (grey mould), bean leaf disk assay, preventive; type: in vivo; settings: foliar, 96 h, 200 ppm, bean leaf disks, assessed four days after inoculation, read-out: control of fungal infection, Botrytis cinerea
Phytophthora infestans = experiment: whole plant or invertebrate; type: in vivo; settings: in Solanum lycopersicum, foliar, 96 h, read-out: control of fungal infection, Phytophthora infestans
Septoria nodorum = Septoria nodorum (wheat glume blotch), wheat leaf segment assay, preventive; type: in vivo; settings: Parastagonospora nodorum, foliar, 96 h; 200 ppm; wheat leaf segments; assessed four days after inoculation; read-out: control of fungal infection, Septoria nodorum
[1] = system: Erysiphe graminis f.sp. tritici; experiment: Erysiphe graminis f.sp. tritici (wheat powdery mildew), wheat leaf segment assay, preventive; type: in vivo; settings: Blumeria graminis, foliar, 96 h; 200 ppm; wheat leaf segments; assessed four days after inoculation; read-out: control of fungal infection, Etysiphe graminis f.sp. tritici
Pythium ultimum = Pythium ultimum (Damping off), liquid culture growth inhibition in potato dextrose broth; type: cell-based; settings: Globisporangium ultimum; 20 ppm; potato dextrose broth, 24° C.; inhibition of growth determined photometrically after 48 hours; read-out: control of fungal infection, Pythium ultimum
[2] = system: Puccinia recondita f.sp. tritici; experiment: Puccinia recondita f.sp. tritici (wheat brown rust), wheat leaf segment assay, preventive; type: in vivo; settings: foliar, 216 h, 200 ppm, wheat leaf segments, assessed nine days after inoculation, read-out: control of fungal infection, Puccinia recondite f.sp. tritici

CCON=CC(C)(C)NC(=O)C(Oc1cc(Br)c2ncc(Br)cc2c1)SC (stereo not shown) [Compound No. 33, 2-(3,8-Dibromo-quinolin-6-yloxy)-N-(2-ethoxyimino-1,1-dimethyl-ethyl)-2-methylsulfanyl-acetamide]
≥ 60%: pest or weed control at 200 ppm (Plasmopara viticola) | inhibition of growth at 200 ppm (Septoria tritici) | pest or weed control at 200 ppm (Botrytis cinerea)

CCC(Oc1ccc2ncc(I)cc2c1)C(=O)NC(C)(C=NOC)COC (stereo not shown) [Compound No. 68, 2-(3-Iodo-quinolin-6-yloxy)-N-(2-methoxyimino-1-methoxymethyl-1-methyl-ethyl]-butyramide]
≥ 60%: pest or weed control at 200 ppm (Plasmopara viticola) | inhibition of growth at 200 ppm (Septoria tritici) | pest or weed control at 200 ppm (Phytophthora infestans) | pest or weed control at 200 ppm (Septoria nodorum) | pest or weed control at 200 ppm [1] | pest or weed control at 200 ppm (Botrytis cinerea)

C=CCON=CC(C)(C)NC(=O)C(Oc1ccc2ncc(Br)cc2c1)SC (stereo not shown) [Compound No. 13, N-(2-Allyloxyimino-1,1-dimethyl-ethyl)-2-(3-bromo-quinolin-6-yloxy)-2-methylsulfanyl-acetamide]
≥ 60%: inhibition of growth at 20 ppm (Pythium ultimum) | pest or weed control at 200 ppm (Plasmopara viticola) | inhibition of growth at 200 ppm (Septoria tritici) | pest or weed control at 200 ppm (Phytophthora infestans) | pest or weed control at 200 ppm [1] | pest or weed control at 200 ppm (Botrytis cinerea)

C=CCON=CCC(C)(C)NC(=O)C(Oc1cc(C)c2ncc(I)cc2c1)SC (stereo not shown) [Compound No. 40, N-(3-Allyloxyimino-1,1-dimethyl-propyl)-2-(3-iodo-8-methyl-quinolin-6-yloxy)-2-methylsulfanyl-acetamide]
≥ 60%: pest or weed control at 200 ppm (Plasmopara viticola) | inhibition of growth at 200 ppm (Septoria tritici) | pest or weed control at 200 ppm (Botrytis cinerea)

C#Cc1cnc2c(C)cc(OC(CC)C(=O)NC(C)(C)C=NOCC=C)cc2c1 (stereo not shown) [Compound No. 138, N-(2-Allyloxyimino-1,1-dimethyl-ethyl)-2-(3-ethynyl-8-methyl-quinolin-6-yloxy)-butyramide]
≥ 60%: inhibition of growth at 20 ppm (Pythium ultimum) | pest or weed control at 200 ppm (Plasmopara viticola) | inhibition of growth at 200 ppm (Septoria tritici) | pest or weed control at 200 ppm (Phytophthora infestans) | pest or weed control at 200 ppm (Septoria nodorum) | pest or weed control at 200 ppm [1] | pest or weed control at 200 ppm [2]

CCC(Oc1cc(C)c2ncc(I)cc2c1)C(=O)NC(C)(C)C=NOC (stereo not shown) [Compound No. 5, 2-(3-Iodo-8-methyl-quinolin-6-yloxy)-N-(2-methoxyimino-1,1-dimethyl-ethyl)-butyramide]
≥ 60%: pest or weed control at 200 ppm (Plasmopara viticola) | inhibition of growth at 200 ppm (Septoria tritici) | pest or weed control at 200 ppm (Phytophthora infestans) | pest or weed control at 200 ppm (Septoria nodorum) | pest or weed control at 200 ppm [1] | pest or weed control at 200 ppm [2]

CON=CC(C)(C)NC(=O)C(Oc1cc(C)c2sccc2c1)SC (stereo not shown) [Compound No. 84, N-(2-methoxyimino-1,1-dimethyl-ethyl)-2-(7-methyl-benzo[b]thiophen-5-yloxy)-2-methylsulfanyl-acetamide]
≥ 60%: pest or weed control at 200 ppm (Plasmopara viticola) | inhibition of growth at 200 ppm (Septoria tritici) | pest or weed control at 200 ppm (Botrytis cinerea)

CCC(Oc1cc(C)c2ncc(Br)cc2c1)C(=O)NC(C)(C)C=NOC (stereo not shown) [Compound No. 145, 2-(3-Bromo-8-methyl-quinolin-6-yloxy)-N-(2-methoxyimino-1,1-dimethyl-ethyl)-butyramide]
≥ 60%: pest or weed control at 200 ppm (Plasmopara viticola) | inhibition of growth at 200 ppm (Septoria tritici) | pest or weed control at 200 ppm (Phytophthora infestans) | pest or weed control at 200 ppm (Septoria nodorum) | pest or weed control at 200 ppm [1] | pest or weed control at 200 ppm (Botrytis cinerea)

CSC(Oc1cc(C)c2ncc(I)cc2c1)C(=O)NC(C)(C)CC=NOC1CCCCO1 (stereo not shown) [Compound No. 96, N-[1,1-Dimethyl-3-(tetrahydro-pyran-2-yloxyimino)-propyl]-2-(3-iodo-8-methyl-quinolin-6-yloxy)-2-methylsulfanyl-acetamide]
≥ 60%: inhibition of growth at 20 ppm (Pythium ultimum) | pest or weed control at 200 ppm (Plasmopara viticola) | inhibition of growth at 200 ppm (Septoria tritici) | pest or weed control at 200 ppm (Botrytis cinerea)

CON=CC(C)(C)NC(=O)C(Oc1cc(C)c2ccc(Br)cc2c1)SC (stereo not shown) [Compound No. 85, 2-(7-bromo-4-methyl-naphthalen-2-yloxy)-N-(2-methoxyimino-1,1-dimethyl-ethyl)-2-methylsulfanyl-acetamide]
≥ 60%: inhibition of growth at 200 ppm (Septoria tritici) | pest or weed control at 200 ppm [1] | pest or weed control at 200 ppm (Botrytis cinerea)

CON=CC(C)(C)NC(=O)C(Oc1cc(C)c2scnc2c1)SC (stereo not shown) [Compound No. 87, N-(2-methoxyimino-1,1-dimethyl-ethyl)-2-(7-methyl-benzothiazol-5-yloxy)-2-methylsulfanyl-acetamide]
≥ 60%: inhibition of growth at 20 ppm (Pythium ultimum) | pest or weed control at 200 ppm (Botrytis cinerea)

CON=C(Cc1ccccc1)C(C)(C)NC(=O)C(Oc1ccc2ncc(Br)cc2c1)SC (stereo not shown) [Compound No. 121, 2-(3-Bromo-quinolin-6-yloxy)-N-{2-[(E or Z)-methoxyimino]-1,1-dimethyl-3-phenyl-propyl}-2-methylsulfanyl-acetamide]
≥ 60%: pest or weed control at 200 ppm (Plasmopara viticola) | inhibition of growth at 200 ppm (Septoria tritici) | pest or weed control at 200 ppm (Botrytis cinerea)

CON=CC(C)(C)NC(=O)C(Oc1cc(C)c2ncsc2c1)SC (stereo not shown) [Compound No. 89, N-(2-Methoxyimino-1,1-dimethyl-ethyl)-2-(4-methyl-benzothiazol-6-yloxy)-2-methylsulfanyl-acetamide]
≥ 60%: pest or weed control at 200 ppm (Plasmopara viticola) | inhibition of growth at 200 ppm (Septoria tritici) | pest or weed control at 200 ppm (Phytophthora infestans) | pest or weed control at 200 ppm [1] | pest or weed control at 200 ppm (Botrytis cinerea)

CON=CC(C)(C)NC(=O)C(Oc1cc(Cl)c2sccc2c1)SC (stereo not shown) [Compound No. 83, 2-(7-Chloro-benzo[b]thiophen-5-yloxy)-N-(2-methoxyimino-1,1-dimethyl-ethyl)-2-methylsulfanyl-acetamide]
≥ 60%: pest or weed control at 200 ppm (Plasmopara viticola) | inhibition of growth at 200 ppm (Septoria tritici) | pest or weed control at 200 ppm (Botrytis cinerea)

CON=CC(C)(C)NC(=O)C(OC)Oc1cc(C)c2ncc(C#C[Si](C)(C)C)cc2c1 (stereo not shown) [Compound No. 75, 2-Methoxy-N-(2-methoxyimino-1,1-dimethyl-ethyl)-2-(8-methyl-3-trimethylsilanylethynyl-quinolin-6-yloxy)-acetamide]
≥ 60%: pest or weed control at 200 ppm (Plasmopara viticola) | pest or weed control at 200 ppm (Phytophthora infestans) | pest or weed control at 200 ppm (Septoria nodorum) | pest or weed control at 200 ppm [1] | pest or weed control at 200 ppm (Botrytis cinerea)

CCON=C(Cc1ccccc1)C(C)(C)NC(=O)C(Oc1ccc2ncc(Br)cc2c1)SC (stereo not shown) [Compound No. 122, 2-(3-Bromo-quinolin-6-yloxy)-N-{2-[(E or Z)-ethoxyimino]-1,1-dimethyl-3-phenyl-propyl}-2-methylsulfanyl-acetamide]
≥ 60%: pest or weed control at 200 ppm (Plasmopara viticola) | inhibition of growth at 200 ppm (Septoria tritici) | pest or weed control at 200 ppm (Botrytis cinerea)

C=CCON=C(Cc1ccccn1)C(C)(C)NC(=O)C(Oc1ccc2ncc(Br)cc2c1)SC (stereo not shown) [Compound No. 129, N-{2-[(E or Z)-Allyloxyimino]-1,1-dimethyl-3-pyridin-2-yl-propyl}-2-(3-bromo-quinolin-6-yloxy)-2-methylsulfanyl-acetamide]
≥ 60%: inhibition of growth at 200 ppm (Septoria tritici) | pest or weed control at 200 ppm (Botrytis cinerea)

CON=CC(C)(C)NC(=O)C(OC)Oc1ccc2ncc(C#C[Si](C)(C)C)cc2c1 (stereo not shown) [Compound No. 74, 2-Methoxy-N-(2-methoxyimino-1,1-dimethyl-ethyl)-2-(3-trimethylsilanylethynyl-quinolin-6-yloxy)-acetamide]
≥ 60%: inhibition of growth at 20 ppm (Pythium ultimum) | pest or weed control at 200 ppm (Plasmopara viticola) | inhibition of growth at 200 ppm (Septoria tritici) | pest or weed control at 200 ppm (Phytophthora infestans) | pest or weed control at 200 ppm [1] | pest or weed control at 200 ppm (Botrytis cinerea)

CON=CC(C)(C)NC(=O)C(Oc1cc(Cl)c2ncc(I)cc2c1)SC (stereo not shown) [Compound No. 106, 2-(8-Chloro-3-iodo-quinolin-6-yloxy)-N-(2-methoxyimino-1,1-dimethyl-ethyl)-2-methylsulfanyl-acetamide]
≥ 60%: pest or weed control at 200 ppm (Plasmopara viticola) | inhibition of growth at 200 ppm (Septoria tritici) | pest or weed control at 200 ppm (Botrytis cinerea)
